The record followed here is PMC12657321, “Pre-clinical evaluation of a potent and effective Pin1-degrading agent in pancreatic cancer” (Molecular Therapy Oncology, 2025).

Usually half-life stands for the time needed for the level to fall by half in the phase considered. As usually defined, the EC50 is the midpoint of the concentration-response curve.

Non-standard residues stand in square brackets, D forms with d. Residues, ends and D or L forms follow the SMILES beside them. *: point of attachment. Trp(6-Cl) = N[C@@H](Cc1c[nH]c2cc(Cl)ccc12)C(=O)O; Pip = O=C(O)[C@@H]1CCCCN1; ClAc = O=C(CCl)*

Series [1] deals with T1, human Pin1 (Homo sapiens, UniProt Q13526).
T1 construct: Residues 1–163 of human Pin1 were expressed with a thrombin cleavage site and a HisTag at the N-terminus; 6xHis (N); thrombin cleavage site (N); made in house; host or cells: E. coli
T1 sequence (Q13526 whole entry, the tested form may be a part): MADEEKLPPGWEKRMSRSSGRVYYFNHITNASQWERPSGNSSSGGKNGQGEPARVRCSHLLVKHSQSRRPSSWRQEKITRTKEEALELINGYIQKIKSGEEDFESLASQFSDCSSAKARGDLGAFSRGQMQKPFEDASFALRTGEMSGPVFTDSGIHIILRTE
Description: Covalent complex formation with Pin1 by mass spectrometry. The note with it: ligand 20 μM, 2:1 ligand-to-protein ratio, 10 min incubation. The series is classed as binding.

A short description of series [2]: Wild-type mouse plasma stability. The class given is in vitro ADME. The note with it: 37°C, up to 6 h, acetonitrile quench, LC-MS/MS, value given in h, read-out: Stability half-life, Mouse WT (converted). On the procedure: (§1) A solution of a Pin1 inhibitor was spiked into blank plasma at 1 μg/mL in various solutions, including an aqueous buffer (1× phosphate-buffered saline; Fisher Scientific, Fair Lawn, NJ), human plasma (Innovative Research Inc., Novi, MI), wild-type mouse plasma (Innovative Research Inc., Novi, MI), plasma form esterase-deficient mice (City of Hope, Duarte, CA), and plasma from Black 6-Cg mice (City of Hope, Duarte, CA).
(§2) The spiked plasma samples were incubated at 37°C for up to 6 h. At each designated time point, a 20 μL aliquot of the incubation sample was removed and quenched in 100 μL of acetonitrile. At the end of the incubation, the quenched samples were vortexed and centrifuged for 10 min at 4°C and 20,000 × g. The resulting supernatant was reconstituted and analyzed by LC-MS/MS.
(§3) Table S2. Stability half-life of agents reported in Table 1 after incubation at 37 °C in various media. Acq represents aqueous buffer composed of 1x phosphate buffered saline (Fisher Scientific, Fair Lawn, NJ); human represents human plasma (Innovative Research Inc., Novi, MI); mouse wt represents wild type mouse plasma (Innovative Research Inc., Novi, MI); mouse ES1e represents plasma form esterase deficient mice (City of Hope, Duarte, CA); mouse B6-Cg represents plasma from black 6-Cg mice (City of Hope, Duarte, CA). See Figure 1 for the chemical structures of these compounds.
(§4) Compound Acq Human Mouse Mouse ES1e Mouse

The nature of series [3]: Stability in plasma from esterase-deficient (ES1e) mice. The series is classed as in vitro ADME. The note with it: mouse, 37°C, up to 6 h, acetonitrile quench, LC-MS/MS. The method, then:
as §1, §2, §3, §4

The nature of series [4]: Stability in plasma from Black 6-Cg mice. The series is classed as in vitro ADME. The settings on record: Black 6-Cg (B6-Cg), mouse, 37°C, up to 6 h, acetonitrile quench, LC-MS/MS. On the procedure:
as §1, §2, §3, §4

Series [5] has as its target T2, Pin1 in MIA PaCa-2 cells (Homo sapiens, UniProt Q13526).
T2 construct: endogenous in cells; host or cells: BxPC3, MIA PaCa-2
Description: Pin1 degradation by western blot in MIA PaCa-2 cells. The class given is cell-based. The settings on record: MIA PaCa-2, 0.5-15 μM for 24 h, Pin1 relative to β-actin. On the procedure:
To ascertain that the plasma-stable agent 164B8 retained its ability to induce Pin1 degradation in cells, we tested it in three pancreatic cancer cell lines—human BxPC3 and MIA PaCa-2, and the mouse pancreatic cancer cell line KPC—using western blot analysis (Figure 2).
Figure 2 Degradation of Pin1 in different cell lines in response to 164B8 treatment BxPC3, MIA PaCa-2, and KPC were each treated with 0.1% DMSO and concentrations of 164B8 ranging between 0.5 and 15 μM for 24 h, and Pin1 levels were quantified with respect to β-actin using a specific anti-Pin1 antibody and western blotting (uncropped blots are reported in Figure S6).
At the end of the treatments, cells were lysed with a lysis buffer containing 20 mM Tris (pH 7.4), 1% Triton X-100, 5 mM EDTA, 0.1% sodium dodecyl sulfate (SDS), 1% IGEPAL, 0.5% sodium deoxycholate, 120 mM NaCl, and a protease inhibitor cocktail and PhosSTOP (Sigma-Aldrich). Lysates were then centrifuged at 16,000 × g for 20 min at 4°C, and the supernatants were collected. Protein concentrations were determined using the Pierce BCA Protein Assay Kit (Thermo Fisher Scientific) according to the manufacturer’s protocol. For traditional western blotting (Figure 2), samples were loaded onto precast Bis-Tris gels and subsequently transferred onto PVDF membranes. […]
(In general: A western blot detects proteins with antibodies after separation by electrophoresis.)

For series [6], the system named is KPC cells. The series is classed as cell-based, mouse. The note with it: 72 h. The method, then:
(§5) The effect of Pin1 degradation by 164B8 on cell viability was assessed using live-cell analysis (IncuCyte S3). […] Furthermore, to evaluate the acute single-dose toxicity of 164B8 in vivo, CD-1 immune-competent mice were exposed to increasing doses of 164B8. […] Therefore, a maximum tolerated dose was not reached (Figure S12).
Figure S11: Mia PaCa-2 and KPC cells were treated with different doses of 164B8, and the
IncuCyte S3 live-cell analysis system was used to monitor the agent’s activity every 3 hours for
(§6) (1 picture or pasted object on this page, not shown here)

In series [7] the test system is CD-1 mice. The series is classed as in vivo, mouse. The method, then:
as §5
Figure S12: A) Acute toxicity study at 100mg/kg. In this preliminary safety study, 3 CD -1 mice were treated with a single dose of 100 mg/kg of 164B8. The injections were administered intraperitoneally (ip), and the body weight of the mice was measured for several days after the injection. B) Body weight control during the in -vivo efficacy study. The body weights of the mice in the three groups were measured on the day of treatment (day 0) and 7 and 14 days after.
as §6

T2 sequence (Q13526 whole entry): as the sequence (Q13526 whole entry, the tested form may be a part) above

Turning to `CNC(=O)[C@H](Cc1c[nH]c2ccccc12)NC(=O)[C@@H]1CCCCN1C(=O)[C@H](Cc1c[nH]c2cc(Cl)ccc12)NC(=O)CCl` [164B8] (ClAc-[Trp(6-Cl)]-[Pip]-Trp-NHMe), the “% Complex (MS)” value in series [1] is recorded as “∼100%”. Further, the half-life at 1 μg/mL in series [2] is approximately 270 min; in series [3], more than 300 min; in series [4] it was more than 300 min. For the same compound, in series [5], the “DC50 of Pin1 degradation” value is given as “sub-micromolar”. Further, in series [6], the EC50 worked out at 5.3 µM. Besides, the Acute single-dose toxicity result in series [7] (100 mg/kg single dose intraperitoneally (highest soluble dose), monitored over 2 weeks, 3 mice) is recorded as “did not produce any observable signs of acute toxicity”. In addition, in series [7] (single intraperitoneal dose up to 100 mg/kg), the Maximum tolerated dose entry was “not reached”.
